The values below come from patent publication US7811609B2, “Use of metal compounds to treat gastrointestinal infections” (priority 2000, dated 2010).

The test system of one assay is Helicobacter pylori. Briefly: MIC against Helicobacter pylori by two fold serial dilution in growth medium. The following applies: for Mean ratio pH 4:pH 7, first value: Strain 1 (Chloride: against first pH 7 value); for MIC, Strain 1 (pH 7): pH 7 (first value where two are given); for Mean ratio pH 4:pH 7, second value: Strain 2 (Chloride: Strain 1 against second pH 7 value); for Average Selectivity Ratio: (Sum of MIC values against all bacteria except H. pylori ÷ No. of MIC values) ÷ MIC value for H. pylori; for effect on the MIC of cobalt against H. pylori: weight ratio of 1:5 (cobalt:cysteine and/or methionine). Type of assay: cell-based.

For assay [1], the system named is Pseudomonas aeruginosa. The following applies: extrapolated from survival rates; protein broth then phosphate-buffered saline; Zhao et al 1998; cited from earlier work.
The subject of assay [2] is Staphylococcus (aureus or Oxford Staph). The following applies: extrapolated from survival rates; protein broth then phosphate-buffered saline; Zhao et al 1998; cited from earlier work.
The next assay deals with E. coli. The following applies: extrapolated from survival rates; protein broth then phosphate-buffered saline; Zhao et al 1998; cited from earlier work.
For a further assay, the system named is Klebsiella. Briefly: MIC against Klebsiella. The following applies: Table 4. The format is cell-based.
For the next assay, the system named is Echerichia coli. The assay is described as follows: MIC against Echerichia coli. Type of assay: cell-based. As to conditions: Table 4.
The subject of assay [3] is Pseudomonas aeruginosa. Briefly: MIC against Pseudomonas aeruginosa. Type of assay: cell-based. The following applies: Table 4.
For the next assay, the system named is Staphylococcus aureus. Briefly: MIC against Staphylococcus aureus. The format is cell-based. The following applies: Table 4.
The next assay relates to Enterococcus faecalis. Briefly: MIC against Enterococcus faecalis. The format is cell-based. As to conditions: Table 4.
The test system of assay [4] is H. pylori. The following applies: cited from earlier work.
In assay [5] the test system is H. pylori. As to conditions: H. pylori; cited from earlier work.
The mark [6] stands for this setting: STH broth, NCTC 11637 and seven clinical isolates.
Setting [7] is: pH 4-7: pH of the media changes during the experiment from acidic start.

By MIC is commonly meant the least concentration at which growth counts as inhibited. The MIC50 is an inhibitory concentration at the 50% level, which refers to growth in some studies and to a panel of isolates in others.

In brackets after ≈: the same amount, converted by molar mass. Where two headings read alike, the source gives them in different places.

Experimental for Helicobacter pylori: Solutions of metal salts were prepared by dilution of the metal salt, optionally together with the ligand, in ultra-high-purity water. The pH values were adjusted to 7 with concentrated sodium hydroxide. The solutions were γ irradiated for 20 to 30 minutes for sterilisation, and then diluted ten fold in the bacterial growth medium to be used.
A gradient of concentration was obtained by two fold serial dilutions of the medium. The concentrations of metals were analysed by inductively coupled plasma spectrometry. Each dilution was inoculated with the different bacteria to be tested, by multi-point inoculating on the agar media, or suspending in the broth media.
The presence or absence of bacterial growth was reported within the concentration gradient and the minimum concentration of complex in the medium that inhibits totally the bacterial growth (MIC) was determined. The growth on an agar plate was detected by the presence of colonies, and by turbidity in the broth media. The bacteria were identified by the Gram morphology test. Helicobacter pylori growth was also confirmed by biochemical test on the catalase, urease and oxidase activity.

For `O=[N+]([O-])[O-].O=[N+]([O-])[O-].O=[N+]([O-])[O-].[Bi+3]` [Bi^3+ (bismuth nitrate), bismuth nitrate, reference compound], the “MIC” value in the assay with Helicobacter pylori (setting [6]) lay within 4 to 8 µg/mL. The “action against H. pylori (in words)” value with Helicobacter pylori (Table 2 metals compared with cobalt (II)) is “active, but only at much higher levels than cobalt (II)”.
For `O=C([O-])[O-].[Co+2]` [Co carbonate], in the assay on Helicobacter pylori, the “Mean ratio pH 4:pH 7, first value” is 0.048; the “MIC, Strain 1 (pH 4)” value came to 0.09; the “MIC, Strain 1 (pH 7)” value turned out to be 1.09; the “Mean ratio pH 4:pH 7, second value” is reported as 0.018. Moreover, the “MIC, Strain 2 (pH 4)” value with Helicobacter pylori was <0.02. In addition, in the assay on Helicobacter pylori (pH 7), the “MIC, Strain 2 (pH 7)” value worked out at 1.09 and the “MIC, pH 7” value is 0.125-1 mg/l. Further, the “MIC, pH 4-7” value against Helicobacter pylori (setting [7]) is 0.03-0.125 mg/l.
In the case of `[Cl-].[Cl-].[Zn+2]` [Zn^2+], the “Average Selectivity Ratio” value in the assay with Helicobacter pylori is 0.76. Moreover, in the assay on Helicobacter pylori (setting [6]), the “MIC” value is >32 µg/mL. In the assay with Helicobacter pylori (Table 4), the “MIC, H. pylori” value is on record as >32/32 and the “MIC, H. pylori, first of two values” is reported as >32/32. The “MIC, Pseudomonas aeruginosa (footnote a)” value with Pseudomonas aeruginosa [1] was 1.7^a. Moreover, in [2], the “MIC, Staphylococcus (aureus or Oxford Staph) (footnote a)” value (“MIC, Staphylococcus … (footnote a)” for short) is 17^a. Also, the “MIC, E. coli (footnote a)” value with E. coli was 17^a. For the same molecule, in the assay with Klebsiella, the MIC, Klebsiella is > 32 µg/mL. In the assay with Echerichia coli, the MIC, E. coli is > 32 µg/mL. In addition, the MIC, Pseudomonas aeruginosa against Pseudomonas aeruginosa [3] was > 32 µg/mL. In addition, the MIC, Staphylococcus (aureus or Oxford Staph) against Staphylococcus aureus was > 32 µg/mL. Moreover, in the assay with Enterococcus faecalis, the MIC, Ent faecalis was > 32 µg/mL.
Take `N[C@@H](CS)C(=O)O` [cysteine, reference compound]: in the assay on Helicobacter pylori, the “effect on the MIC of cobalt against H. pylori” value is “not to affect the MIC of cobalt against H. pylori”.
Consider `[Cl][Cu][Cl]` [Cu^2+], for which the “Average Selectivity Ratio” value in the assay with Helicobacter pylori came to 1.02. In addition, the “MIC” value in the assay on Helicobacter pylori (setting [6]) is 16 to 32 µg/mL. Besides, in the assay on Helicobacter pylori (Table 4), the “MIC, H. pylori” value amounted to 32 and the “MIC, H. pylori, first of two values” is given as 16. Besides, the MIC, H. pylori in the assay on Helicobacter pylori (Table 4, main value) was 24 µg/mL. Moreover, the “MIC, Pseudomonas aeruginosa (footnote a)” value with Pseudomonas aeruginosa [1] was 1.75^a. In [2], the “MIC, Staphylococcus … (footnote a)” value is reported as 17.15^a. Besides, in the assay on E. coli, the “MIC, E. coli (footnote a)” value is listed as 17.15^a. Moreover, the MIC, Klebsiella in the assay on Klebsiella was > 32 µg/mL. The MIC, E. coli with Echerichia coli is > 32 µg/mL. In addition, the MIC, Pseudomonas aeruginosa in the assay on Pseudomonas aeruginosa [3] is > 32 µg/mL. Also, in the assay with Staphylococcus aureus, the MIC, Staphylococcus (aureus or Oxford Staph) was > 32 µg/mL. Moreover, in the assay on Enterococcus faecalis, the MIC, Ent faecalis is > 32 µg/mL.
`O=[N+]([O-])[O-].O=[N+]([O-])[O-].O=[N+]([O-])[O-].[Cr+3]` [Cr^2+ (chromium nitrate), chromium nitrate, reference compound]: the “MIC” value in the assay on Helicobacter pylori (setting [6]) was >32 µg/mL.
`CC(=O)[O-].CC(=O)[O-].[Co+2]` [Co acetate]: in the assay with Helicobacter pylori, the “Mean ratio pH 4:pH 7, first value” amounted to 0.054; the “MIC, Strain 1 (pH 4)” value was 0.11; the “MIC, Strain 1 (pH 7)” value is reported as 2.03; the “Mean ratio pH 4:pH 7, second value” stood at 0.11. Moreover, in the assay with Helicobacter pylori, the “MIC, Strain 2 (pH 4)” value stood at 0.11. Also, in the assay on Helicobacter pylori (pH 7), the “MIC, Strain 2 (pH 7)” value is 1.01 and the “MIC, pH 7” value is reported as 0.5-2 mg/l. In addition, the “MIC, pH 4-7” value against Helicobacter pylori (setting [7]) worked out at 0.125 mg/l.
As for `[O]=[Mo](=[O])=[O]` [Mo^6+ (molybdenum oxide), molybdenum oxide, reference compound], the “MIC” value in the assay with Helicobacter pylori (setting [6]) is >32 µg/mL.
For `O=[N+]([O-])[O-].O=[N+]([O-])[O-].[Co+2]` [Co nitrate], in the assay on Helicobacter pylori, the “Mean ratio pH 4:pH 7, first value” stood at 0.07; the “MIC, Strain 1 (pH 4)” value is 0.05; the “MIC, Strain 1 (pH 7)” value was 0.69; the “Mean ratio pH 4:pH 7, second value” was 0.08. Moreover, the “MIC, Strain 2 (pH 4)” value against Helicobacter pylori came to 0.055. Also, in the assay with Helicobacter pylori (pH 7), the “MIC, Strain 2 (pH 7)” value was >0.69 and the “MIC, pH 7” value is given as 1 mg/l. Moreover, the “MIC, pH 4-7” value with Helicobacter pylori (setting [7]) amounted to 0.06 mg/l.
As for `[OH][Co][OH]` [Co hydroxide], in the assay on Helicobacter pylori, the “Mean ratio pH 4:pH 7, first value” worked out at 0.058; the “MIC, Strain 1 (pH 4)” value stood at 0.11; the “MIC, Strain 1 (pH 7)” value was determined as 1.9; the “Mean ratio pH 4:pH 7, second value” came out at 0.029. Also, the “MIC, Strain 2 (pH 4)” value against Helicobacter pylori was found to be 0.11. Besides, in the assay on Helicobacter pylori (pH 7), the “MIC, Strain 2 (pH 7)” value is on record as 3.80 and the “MIC, pH 7” value was 2-4 mg/l. Moreover, the “MIC, pH 4-7” value in the assay on Helicobacter pylori (setting [7]) was found to be 0.125 mg/l.
In the case of `O=P([O-])([O-])[O-].O=P([O-])([O-])[O-].[Co+2].[Co+2].[Co+2]` [Co phosphate], the “MIC, pH 4-7” value with Helicobacter pylori (setting [7]) turned out to be 4 mg/l. For the same molecule, the “MIC, pH 7” value with Helicobacter pylori (pH 7) is 0.8 mg/l.
For `CC[C@H]1OC(=O)[C@H](C)[C@@H](O[C@H]2C[C@@](C)(OC)[C@@H](O)[C@H](C)O2)[C@H](C)[C@@H](O[C@@H]2O[C@H](C)C[C@H](N(C)C)[C@H]2O)[C@](C)(OC)C[C@@H](C)C(=O)[C@H](C)[C@@H](O)[C@]1(C)O` [clarithromycin], the eradication of infections result is reported as “about 70%” in the assay on H. pylori [4] (in combination with metronidazole); “about 34%” with H. pylori [4] (monotherapy); 85-95% with H. pylori [4] (triple therapy with a PPI and either metronidazole or amoxycillin). Further, the MIC50 in the assay with H. pylori [5] was 0.03 µg/mL (≈ 0.0401 µM).
With `[Cl][Mn][Cl]` [Mn^2+], in the assay with Helicobacter pylori, the “Average Selectivity Ratio” value amounted to 1.00. In addition, the “MIC” value with Helicobacter pylori (setting [6]) is >32 µg/mL. In the assay on Helicobacter pylori (Table 4), the “MIC, H. pylori” value is recorded as >32/>32 and the “MIC, H. pylori, first of two values” is reported as >32/>32. Besides, the MIC, Klebsiella against Klebsiella was > 32 µg/mL. The MIC, E. coli in the assay on Echerichia coli was > 32 µg/mL. Further, in the assay with Pseudomonas aeruginosa [3], the MIC, Pseudomonas aeruginosa was > 32 µg/mL. In addition, the MIC, Staphylococcus (aureus or Oxford Staph) against Staphylococcus aureus is > 32 µg/mL. Also, the MIC, Ent faecalis with Enterococcus faecalis is > 32 µg/mL.
Regarding `CSCC[C@H](N)C(=O)O` [methionine, reference compound], in the assay on Helicobacter pylori, the “effect on the MIC of cobalt against H. pylori” value is reported as “not to affect the MIC of cobalt against H. pylori”.
Regarding `Br` [Co bromide], in the assay with Helicobacter pylori (Helicobacter pylori, pH 7, read-out: MIC, pH 7), the MIC lay in the range of 1 to 4 µg/mL. For the same molecule, in the assay with Helicobacter pylori (Helicobacter pylori, pH 4-7: pH of the media changes during the experiment from acidic start, read-out: MIC, pH 4-7), the MIC lay in the range of 0.06 to 0.125 µg/mL. For the same molecule, in the assay on Helicobacter pylori, the “Mean ratio pH 4:pH 7, first value” came to 0.036; the “MIC, Strain 1 (pH 4)” value is listed as <0.04; the “MIC, Strain 1 (pH 7)” value worked out at 1.12; the “Mean ratio pH 4:pH 7, second value” came out at 0.02. The “MIC, Strain 2 (pH 4)” value against Helicobacter pylori turned out to be 0.09. For the same molecule, in the assay with Helicobacter pylori (pH 7), the “MIC, Strain 2 (pH 7)” value amounted to 4.49.
Take `O=C(O)CN(CCN(CC(=O)O)CC(=O)O)CC(=O)O` [EDTA, reference compound]: the “effect of added ligand on the MIC / action of cobalt against H. pylori” value in the assay with Helicobacter pylori (ligand added to cobalt) is reported as “inhibited the action of cobalt against H. pylori”.
On to Vitamin B12 [reference compound], for which the “activity against H. pylori” value in the assay with Helicobacter pylori (strongly bound cobalt complex) is reported as “greatly reduced activity”.
Consider `[Ni+2]` [Ni^2+], for which the “Average Selectivity Ratio” value in the assay on Helicobacter pylori came out at 0.89. Besides, the “MIC” value against Helicobacter pylori (setting [6]) is >32 µg/mL. In the assay with Helicobacter pylori (Table 4), the “MIC, H. pylori” value is >32/>32 and the “MIC, H. pylori, first of two values” is reported as >32/>32. In the assay on Pseudomonas aeruginosa [1], the “MIC, Pseudomonas aeruginosa (footnote a)” value is reported as 22.89^a. Moreover, the “MIC, Staphylococcus … (footnote a)” value in assay [2] is listed as 22.89^a. Moreover, the “MIC, E. coli (footnote a)” value with E. coli is 22.89^a. For the same molecule, the MIC, Klebsiella against Klebsiella was > 32 µg/mL. Moreover, the MIC, E. coli against Echerichia coli was > 32 µg/mL. Further, the MIC, Pseudomonas aeruginosa against Pseudomonas aeruginosa [3] was > 32 µg/mL. Also, in the assay on Staphylococcus aureus, the MIC, Staphylococcus (aureus or Oxford Staph) was > 32 µg/mL. In the assay on Enterococcus faecalis, the MIC, Ent faecalis is > 32 µg/mL.
For the molecule `[Cl][Fe]([Cl])[Cl]` [Fe^3+], the “Average Selectivity Ratio” value in the assay on Helicobacter pylori turned out to be 1.00. Moreover, in the assay on Helicobacter pylori (setting [6]), the “MIC” value was >32 µg/mL. Moreover, in the assay on Helicobacter pylori (Table 4), the “MIC, H. pylori” value is >32/>32 and the “MIC, H. pylori, first of two values” is >32/>32. Moreover, in the assay on Klebsiella, the MIC, Klebsiella was > 32 µg/mL. The MIC, E. coli in the assay on Echerichia coli was > 32 µg/mL. Also, in the assay with Pseudomonas aeruginosa [3], the MIC, Pseudomonas aeruginosa is > 32 µg/mL. The MIC, Staphylococcus (aureus or Oxford Staph) in the assay with Staphylococcus aureus is > 32 µg/mL. Besides, the MIC, Ent faecalis in the assay on Enterococcus faecalis was > 32 µg/mL.
As to `O=S(=O)([O-])[O-].[O]=[V+2]` [V^4+ (vanadyl sulfate), vanadyl sulfate, reference compound], the “MIC” value against Helicobacter pylori (setting [6]) was >32 µg/mL.
